test system: wildtype Wnt signaling cascade; assay: HEK293 TOP assay (Super TopFlash luciferase reporter, Wnt-3a stimulated); type: cell-based; details: Homo sapiens, HEK293, 16 h, HEK293 TOP reporter cells, Wnt3a at EC50, 16 hours
In short: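 HEK293 cells stably carrying Super TopFlash (TOP) run in parallel with FOP cells, 10000/well plated 24 h ahead, stimulated with recombinant human Wnt-3a. Compounds tested 50 μM to 15 nM in 3.16-fold steps in CAFTY buffer pH 7.4 with 2 mM Ca^2+ and 0.01% BSA; luciferase read-out.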

IC50 [µM]	SMILES
0.033	Cc1cc(C)n2ncc(C(=O)N[C@H]3CC[C@H](C(=O)Nc4cnccc4Cl)CC3)c2n1 [Example 169, N-{trans-4-[(4-chloropyridin-3-yl)carbamoyl]cyclohexyl}-5,7-dimethylpyrazolo[1,5-a]pyrimidine-3-carboxamide]
9.6	CNC(=O)c1[nH]cnc1C(=O)N[C@H]1CC[C@@](C)(C(=O)Nc2ccc(F)cc2Cl)CC1 [Example 181, N^4-{cis-4-[(2-chloro-4-fluorophenyl)carbamoyl]-4-methylcyclohexyl}-N^5-methyl-1H-imidazole-4,5-dicarboxamide]
0.22	CC(C)NC(=O)c1nc[nH]c1C(=O)N[C@H]1CC[C@H](C(=O)Nc2ccc(F)cc2Cl)CC1 [Example 20, N^5-{trans-4-[(2-chloro-4-fluorophenyl)carbamoyl]cyclohexyl}-N^4-isopropyl-1H-imidazole-4,5-dicarboxamide]
0.072	CC1CCN(CCNC(=O)c2nc[nH]c2C(=O)N[C@H]2CC[C@H](C(=O)Nc3ccc(F)cc3Cl)CC2)CC1 [Example 12, N^5-{trans-4-[(2-chloro-4-fluorophenyl)carbamoyl]cyclohexyl}-N^4-[2-(4-methylpiperidin-1-yl)ethyl]-1H-imidazole-4,5-dicarboxamide]
2	CNC(=O)c1nc[nH]c1C(=O)N[C@H]1CC[C@H](C(=O)Nc2cc(C(C)(C)O)ccc2Cl)CC1 [Example 170, N^5-(trans-4-{[2-chloro-5-(2-hydroxypropan-2-yl)phenyl]carbamoyl}cyclohexyl)-N^4-methyl-1H-imidazole-4,5-dicarboxamide]
0.043	O=C(NCC(F)(F)F)c1nc[nH]c1C(=O)N[C@H]1CC[C@@]2(CCN(c3cccc(Cl)c3)C2=O)CC1 [Example 281, N^5-[(trans)-2-(3-chlorophenyl)-1-oxo-2-azaspiro[4.5]dec-8-yl]-N^4-(2,2,2-trifluoroethyl)-1H-imidazole-4,5-dicarboxamide]
0.064	O=C(NC1CC1)c1nc[nH]c1C(=O)N[C@H]1CC[C@@]2(CCN(c3cccc(Cl)c3)C2=O)CC1 [Example 279, N^5-[(trans)-2-(3-chlorophenyl)-1-oxo-2-azaspiro[4.5]dec-8-yl]-N^4-cyclopropyl-1H-imidazole-4,5-dicarboxamide]
0.27	Cc1cc(C)n2ncc(C(=O)N[C@H]3CC[C@@]4(CCN(c5ccc(F)cc5)C4=O)CC3)c2n1 [Example 211, N-[(trans)-2-(4-fluorophenyl)-1-oxo-2-azaspiro[4.5]dec-8-yl]-5,7-di methyl pyrazolo[1,5-a]pyrimidine-3-carboxamide]
0.14	CNC(=O)c1nc[nH]c1C(=O)N[C@H]1CC[C@H](C(=O)Nc2ccncc2Cl)CC1 [Example 11, N^5-{trans-4-[(3-chloropyridin-4-yl)carbamoyl]cyclohexyl}-N^4-methyl-1H-imidazole-4,5-dicarboxamide]
0.00054	O=C(NCC(F)(F)F)c1nc[nH]c1C(=O)N[C@H]1CC[C@@]2(CCN(c3cc(F)c(F)cc3Cl)C2=O)CC1 [Example 201, N^5-[(trans)-2-(2-chloro-4,5-difluorophenyl)-1-oxo-2-azaspiro[4.5]dec-8-yl]-N^4-(2,2,2-trifluoroethyl)-1H-imidazole-4,5-dicarboxamide]
0.0028	CC1CCN(CCNC(=O)c2nc[nH]c2C(=O)N[C@H]2CC[C@@]3(CCN(c4ccccc4Cl)C3=O)CC2)CC1 [Example 260, N^5-[(trans)-2-(2-chlorophenyl)-1-oxo-2-azaspiro[4.5]dec-8-yl]-N^4-[2-(4-methylpiperidin-1-yl)ethyl]-1H-imidazole-4,5-dicarboxamide]
0.14	CCNC(=O)c1[nH]cnc1C(=O)N[C@H]1CC[C@@]2(CCN(c3ccc(F)cc3)C2=O)CC1 [Example 213, N^5-ethyl-N^4-[(trans)-2-(4-fluorophenyl)-1-oxo-2-azaspiro[4.5]dec-8-yl]-1H-imidazole-4,5-dicarboxamide]
1.4	CN(C)C(=O)c1nc[nH]c1C(=O)N[C@H]1CC[C@H](C(=O)Nc2ccc(F)cc2Cl)CC1 [Example 16, N^5-{trans-4-[(2-chloro-4-fluorophenyl)carbamoyl]cyclohexyl}-N^4,N^4-dimethyl-1H-imidazole-4,5-dicarboxamide]
0.088	CNC(=O)c1[nH]cnc1C(=O)N[C@H]1CC[C@@]2(CCN(c3ccc(F)cc3)C2=O)CC1 [Example 212, N^4-[(trans)-2-(4-fluorophenyl)-1-oxo-2-azaspiro[4.5]dec-8-yl]-N^5-methyl-1H-imidazole-4,5-dicarboxamide]
0.016	O=C(N[C@H]1CC[C@@]2(CCN(c3ccc(F)cc3Cl)C2=O)CC1)c1cnn2cc(CCO)cnc12 [Example 214, N-[(trans)-2-(2-chloro-4-fluorophenyl)-1-oxo-2-azaspiro[4.5]dec-8-yl]-6-(2-hydroxyethyl)pyrazolo[1,5-a]pyrimidine-3-carboxamide]
0.5	O=C(N[C@H]1CC[C@H](C(=O)Nc2ccc(F)cc2Cl)CC1)c1cnn2ccccc12 [Example 205, N-{trans-4-[(2-chloro-4-fluorophenyl)carbamoyl]cyclohexyl}pyrazolo[1,5-a]pyridine-3-carboxamide]
0.0015	Cc1ccn2ncc(C(=O)N[C@H]3CC[C@@]4(CCN(c5ccc(F)cc5Cl)C4=O)CC3)c2n1 [Example 221, N-[(trans)-2-(2-chloro-4-fluorophenyl)-1-oxo-2-azaspiro[4.5]dec-8-yl]-5-methylpyrazolo[1,5-a]pyrimidine-3-carboxamide]
0.0017	CC(C)NC(=O)c1nc[nH]c1C(=O)N[C@H]1CC[C@@]2(CCN(c3cc(F)c(F)cc3Cl)C2=O)CC1 [Example 198, N^5-[(trans)-2-(2-chloro-4,5-difluorophenyl)-1-oxo-2-azaspiro[4.5]dec-8-yl]-N^4-(propan-2-yl)-1H-imidazole-4,5-dicarboxamide]
0.21	CC1CN(C(=O)c2nc[nH]c2C(=O)N[C@H]2CC[C@@]3(CCN(c4ccc(F)cc4Cl)C3=O)CC2)CCS(=O)(=O)C1 (stereo partly drawn) [Example 183, N-[(trans)-2-(2-chloro-4-fluorophenyl)-1-oxo-2-azaspiro[4.5]dec-8-yl]-4-[(6-methyl-1,1-dioxido-1,4-thiazepan-4-yl)carbonyl]-1H-imidazole-5-carboxamide]
0.00023	O=C(NC1CCC2(CC1)CCN(c1cc(F)c(F)cc1Cl)C2=O)c1cnn2cccnc12 (single isomer, unassigned; isomer 1) [Example 168, N-[2-(2-chloro-4,5-difluorophenyl)-1-oxo-2-azaspiro[4.5]dec-8-yl]pyrazolo[1,5-a]pyrimidine-3-carboxamide (isomer 1)]
0.12	O=C(N[C@H]1CC[C@H](C(=O)Nc2ccc(F)cc2Cl)CC1)c1[nH]cnc1C(=O)N1CC2(COC2)C1 [Example 14, N-{trans-4-[(2-chloro-4-fluorophenyl)carbamoyl]cyclohexyl}-4-(2-oxa-6-azaspiro[3.3]hept-6-ylcarbonyl)-1H-imidazole-5-carboxamide]
7.6	C[C@]1(C(=O)Nc2ccc(F)cc2Cl)CC[C@@H](NC(=O)c2cnn3cccnc23)CC1 [Example 180, N-{cis-4-[(2-chloro-4-fluorophenyl)carbamoyl]-4-methylcyclohexyl}pyrazolo[1,5-a]pyrimidine-3-carboxamide]

From patent publication US20180148418A1, “AMIDO-SUBSTITUTED CYCLOHEXANE DERIVATIVES” (Bayer Pharma Aktiengesellschaft, priority 2015, published 2018)
